{"source": "patent US9359399B2", "about": "“Synthetic peptide amides” (Cara Therapeutics, Inc., priority 2006, dated 2016)", "key": {"[1]": {"assay": "Membrane permeability assay, Caco-2 TC7 monolayers, apical-to-basolateral (Cerep)", "details": "human"}, "[2]": {"tested_on": "CYP1A", "assay": "Cytochrome P450 CYP1A inhibition in human liver microsomes (ethoxyresorufin)", "type": "in vitro ADME", "details": "percent remaining CYP activity, 10 uM test compound, 15 minutes", "method": "Inhibition of cytochrome P450 oxidase isozymes CYP1A, CYP2C9, CYP2C19, CYP2D6 and CYP3A4 by synthetic peptide amide compounds of the invention was determined according to the following methods performed by Cerep (Seattle, Wash.):\nIn the cytochrome P450 CYP1A assay, human liver microsomes (0.2 mg/ml protein) were incubated for 15 minutes at 37° C. with 10 uM test compound, 1 uM ethoxyresorufin, 1.3 mM NADP, 3.3 mM glucose-6-phosphate and 0.4 U/ml glucose-6-phosphate dehydrogenase. In the absence of test compound, the ethoxyresorufin added as substrate is oxidized to resorufin, and in the presence of an inhibitor of the CYP isozyme, the amount of resorufin produced is reduced. Furafylline was used as a reference inhibitor.\nIn each assay, the percent inhibition of the cytochrome P450 CYP P450 isozyme was determined as one hundred times the ratio of (1—the amount of product in the sample in the presence of the test compound) divided by the amount of product in the sample containing untreated isozyme."}, "[3]": {"target": "CYP3A4 (Homo sapiens (Human), UniProt P08684)", "assay": "Cytochrome P450 CYP3A4 inhibition in human liver microsomes (midazolam)", "details": "percent remaining CYP activity, 10 uM test compound, 20 minutes"}, "[4]": {"target": "CYP2C9 (Homo sapiens (Human), UniProt P11712)", "assay": "Cytochrome P450 CYP2C9 inhibition in human liver microsomes (tolbutamide)", "details": "percent remaining CYP activity, 10 uM test compound, 15 minutes"}, "[5]": {"target": "CYP2C19 (Homo sapiens (Human), UniProt P33261)", "assay": "Cytochrome P450 CYP2C19 inhibition in human liver microsomes (omeprazole)", "details": "percent remaining CYP activity, 10 uM test compound, 15 minutes"}, "[6]": {"target": "CYP2D6 (Homo sapiens (Human), UniProt P10635)", "assay": "Cytochrome P450 CYP2D6 inhibition in human liver microsomes (dextromethorphan)", "details": "percent remaining CYP activity, 10 uM test compound, 15 minutes"}, "[7]": {"tested_on": "acetic acid-induced writhing in mice", "assay": "Acetic acid-induced writhing assay in mice", "type": "in vivo, ICR mice", "details": "ICR mice, administered subcutaneously", "method": "12: 525-562; Ramabadran and Bansinath (1986) Pharm. Res. 3: 263-270]. Intraperitoneal administration of dilute acetic acid solution causes a writhing behavior in mice. A writhe is defined as a contraction of the abdominal muscles accompanied by an extension of the forelimbs and elongation of the body. The number of writhes observed in the presence and absence of test compounds is counted to determine the analgesic activity of the compounds.\nEach day a writhing assay was performed, a vehicle control group of mice (n=6-8) that were treated identically to the test group (except that test compound was omitted from the injection dose) was always included and the average total number of writhes in this group used as the absolute reference point defining 0% decrease in pain perception for all other mice receiving a test compound on that day. Specifically, the total number of writhes of each mouse receiving the test compound was converted to % decrease in pain perception according to the following equation:\n[formula] Where Wv is the mean number of writhes in vehicle-treated group and Wc is the number of writhes in compound-treated mouse.\nMale ICR mice, 23-37 grams in weight, were weighed and placed in individual observation chambers (usually a 4000 ml glass beaker) with a fine layer of SANI-CHIPS rodent bedding at the bottom. […] After administration of the compound or vehicle control, mice were returned to their individual observation chambers awaiting the intraperitoneal administration of acetic acid solution. […] and acetic acid injection, a dose corresponding to 10 ml/kg of a 0.6% (v/v) acetic acid solution was then injected into the right lower quadrant of the abdomen. Immediately after the injection, the mouse was returned to its observation chamber and the recording of the number of writhes begun immediately. The number of writhes was counted over a 15-min period starting from the time of acetic acid injection, the data being collected over three separate 5 minute time periods (0-5 min, 5-10 min, and 10-15 min).\nThe data were reported as ED50, and Hill coefficient. […] The Hill coefficient is expressed as the arithmetic mean±sem calculated from the values obtained from the animals.\nFor dose-response analysis, raw data were converted to % maximum possible effect (% MPE) using the formula: % MPE=((test score−vehicle-treated score)/(0−vehicle-treated score))*100. Raw data were analyzed using a one-way ANOVA followed by Dunnett's post-tests. […] Compounds were administered by the intravenous route."}, "[8]": {"assay": "Inhibition of locomotion in mice (locomotion reduction assay, sedation)", "parameters": "species or system ICR mice", "details": "mouse, in vivo, sc, administered subcutaneously, sedative effect", "method": "To determine the potential sedative effect of test compounds, the extent of locomotion reduction after the administration of the test compound or vehicle control can be determined and compared with a specialized apparatus designed for this purpose (Opto-Varimex Activity Meter). At the start of each experiment, each mouse was weighed and examined to determine good health. […] The subcutaneous injection was performed in the back of the neck of the mouse, pinched in a “tent” to allow proper access for the syringe needle. After injection, each animal was placed individually in Plexiglas boxes (43 cm×43 cm) inside the Opto-Varimex Activity Meter apparatus. Before the animal was placed in the apparatus, a thin layer of SANI-CHIPS rodent bedding was placed on the bottom of the Plexiglas box to provide a comfortable environment. Each Opto-Varimex Activity Meter apparatus was then turned on and data acquisition begun by the ATM3 Auto-Track System. The data were processed and results expressed in the same way as described for the writhing assay data in Example 47.\nInhibition of acetic acid-induced writhing by a compound is an indication of an analgesic effect (also called an antinociceptive effect). Similarly, a reduction in locomotion caused by administration of the compound can be used as a measure of its general sedative effect."}, "[9]": {"tested_on": "capsaicin-induced ocular pain", "assay": "Capsaicin-induced ocular pain, palpebral opening in rabbits", "type": "in vivo, albino New Zealand strain rabbits", "details": "10-30 min. post capsaicin"}, "[10]": {"target": "mouse kappa opioid receptor (mKOR) (Mus musculus (Mouse), UniProt P33534)", "assay": "cell-based", "details": "read-out: mKOR Efficacy(%)"}, "[11]": {"assay": "Pharmacokinetics in ICR mice after subcutaneous injection", "details": "mouse, in vivo, sc, 1 mg/kg, time for plasma concentration to fall by 50% after maximum", "method": "A single bolus of the synthetic peptide amide compound was administered by subcutaneous injection to ICR mice (n=6, males, body wt 23-37 g, Charles River, Wilmington, Mass.) and plasma samples taken at 5, 10, 15, 20, 30 60, 90, 120, and 180 minutes post-injection.\nQuantitation was performed against a calibration curve of the analyte in blank Cynomolgus monkey plasma using the same internal standard. Data analysis and the extraction of pharmacokinetic parameters were performed with the program PK Solutions 2.0 (Summit Research Services, Ashland, Ohio, USA)."}, "[12]": {"assay": "Pharmacokinetics in cynomolgus monkeys after intravenous bolus", "details": "cynomolgus monkey, in vivo"}, "[13]": {"target": "human kappa opioid receptor (hKOR) (Homo sapiens (Human), UniProt P41145)", "assay": "cell-based", "details": "HEK293, read-out: hKOR Efficacy(%)"}, "[14]": {"assay": "in vitro", "details": "human, Caco-2"}}, "note": "Square brackets hold non-standard residues; d marks the D form. Peptide text beside a SMILES is read from it. * marks the point of attachment. Piperidinyl(4-(1-Pro-OH)) = O=C(O)[C@@H]1CCCN1C1CCN(*)CC1; dDab = NCC[C@@H](N)C(=O)O", "data": [{"compound": "CN(C(=O)C(c1ccccc1)c1ccccc1)[C@H](CN1CC[C@H](O)C1)c1ccccc1", "note": "[Asimadoline, asimadoline, reference compound]", "values": [{"measurement": "Papp A→B at 60 min, 10 uM", "setting": "[1]", "result": 37.5, "unit": "×10⁻⁶ cm/s"}]}, {"compound": "CNCCCC[C@@H](NC(=O)[C@@H](CC(C)C)NC(=O)[C@@H](Cc1ccccc1)NC(=O)[C@H](N)Cc1ccccc1)C(=O)N1CCCN(C(=N)N)CC1", "note": "[Compound (1), D-Phe-D-Phe-D-Leu-(ε-Me)D-Lys-[4-Amidinohomopiperazine amide]]", "values": [{"measurement": "Percent Activity of CYP1A", "setting": "[2]", "result": 89.8, "unit": "%"}, {"measurement": "Percent Activity of CYP3A4", "setting": "[3]", "result": 92.5, "unit": "%"}, {"measurement": "Percent Activity of CYP2C9", "setting": "[4]", "result": 93.2, "unit": "%"}, {"measurement": "Percent Activity of CYP2C19", "setting": "[5]", "result": 98.5, "unit": "%"}, {"measurement": "Percent Activity of CYP2D6", "setting": "[6]", "result": 96.0, "unit": "%"}, {"measurement": "Papp A→B at 60 min, 10 uM", "setting": "[1]", "result": "< 0.1", "unit": "×10⁻⁶ cm/s"}]}, {"compound": "CNCCCC[C@@H](NC(=O)[C@@H](CC(C)C)NC(=O)[C@@H](Cc1ccccc1)NC(=O)[C@H](N)Cc1ccccc1)C(=O)N1CCC(N)(C(=O)O)CC1", "note": "[Compound (3), D-Phe-D-Phe-D-Leu-(ε-Me)D-Lys-[ω(4-aminopiperidine-4-carboxylic acid)]-OH]", "values": [{"measurement": "Percent Activity of CYP1A", "setting": "[2]", "result": 93.1, "unit": "%"}, {"measurement": "ED50 in the acetic acid-induced writhing assay", "setting": "[7]", "result": 0.052, "unit": "mg/kg"}, {"measurement": "ED50", "setting": "[8]", "result": 2.69, "unit": "mg/kg"}, {"measurement": "Mean palpebral opening (% Control)", "setting": "[9]; Table VII, 10 mg/ml, five animals", "result": 76.0, "unit": "% Control"}, {"measurement": "Percent Activity of CYP3A4", "setting": "[3]", "result": 94.3, "unit": "%"}, {"measurement": "Percent Activity of CYP2C9", "setting": "[4]", "result": 97.4, "unit": "%"}, {"measurement": "Percent Activity of CYP2C19", "setting": "[5]", "result": 103.2, "unit": "%"}, {"measurement": "Percent Activity of CYP2D6", "setting": "[6]", "result": 99.5, "unit": "%"}, {"measurement": "Papp A→B at 60 min, 10 uM", "setting": "[1]", "result": "< 0.02", "unit": "×10⁻⁶ cm/s"}]}, {"compound": "CNCCCC[C@@H](NC(=O)[C@@H](CC(C)C)NC(=O)[C@@H](Cc1ccccc1)NC(=O)[C@H](N)Cc1ccccc1)C(=O)N1CCC(N2CCC[C@H]2C(=O)O)CC1", "note": "[Compound (6), D-Phe-D-Phe-D-Leu-(ε-Me)D-Lys-[N-(4-piperidinyl)-L-proline]-OH]", "values": [{"measurement": "Emax", "setting": "[10]", "result": 89, "unit": "%"}, {"measurement": "Percent Activity of CYP1A", "setting": "[2]", "result": 89.5, "unit": "%"}, {"measurement": "half-life", "setting": "[11]", "result": 22, "unit": "min"}, {"measurement": "half-life", "setting": "[12]", "result": 58.6, "unit": "min"}, {"measurement": "Percent Activity of CYP3A4", "setting": "[3]", "result": 93.6, "unit": "%"}, {"measurement": "Percent Activity of CYP2C9", "setting": "[4]", "result": 92.1, "unit": "%"}, {"measurement": "Percent Activity of CYP2C19", "setting": "[5]", "result": 97.2, "unit": "%"}, {"measurement": "Percent Activity of CYP2D6", "setting": "[6]", "result": 93.9, "unit": "%"}, {"measurement": "Papp A→B at 60 min, 10 uM", "setting": "[1]", "result": "< 0.02", "unit": "×10⁻⁶ cm/s"}]}, {"compound": "CC(C)C[C@@H](NC(=O)[C@@H](Cc1ccccc1)NC(=O)[C@H](N)Cc1ccccc1)C(=O)N[C@H](CCCCNC(C)C)C(=O)N1CCC(N)(C(=O)O)CC1", "note": "[Compound (9), D-Phe-D-Phe-D-Leu-(8-iPr)D-Lys-[ω(4-aminopiperidine-4-carboxylic acid)]-OH]", "values": [{"measurement": "Emax", "setting": "[13]", "result": 100, "unit": "%"}]}, {"compound": "CC(C)C[C@@H](NC(=O)[C@@H](Cc1ccccc1)NC(=O)[C@H](N)Cc1ccccc1)C(=O)N[C@H](CCN)C(=O)N1CCC(N2CCC[C@H]2C(=O)O)CC1", "note": "[Compound (12), D-Phe-D-Phe-D-Leu-D-Dbu4N-(4-piperidinyl)-L-prolinel-OH] (H-[dF][dF][dL][dDab]-{Piperidinyl(4-(1-Pro-OH))})", "values": [{"measurement": "Emax", "setting": "[13]", "result": 100, "unit": "%"}]}, {"compound": "COc1ccc([C@@H]2Sc3ccccc3N(CCN(C)C)C(=O)[C@@H]2OC(C)=O)cc1", "note": "[Diltiazem, diltiazem, reference compound]", "values": [{"measurement": "Mean palpebral opening (% Control)", "setting": "[9]; Table VII, 10 mM, five animals", "result": 74.6, "unit": "% Control"}, {"measurement": "Mean palpebral opening (% Control)", "setting": "[9]; Table VIII, 10 mM, ten animals", "result": 77.6, "unit": "% Control"}]}, {"compound": "CC(CCc1ccccc1)NCC(O)c1ccc(O)c(C(N)=O)c1", "note": "(stereo not drawn) [Labetalol, labetalol]", "values": [{"measurement": "Papp A→B at 60 min, 10 uM", "setting": "[14]", "result": 9.9, "unit": "×10⁻⁶ cm/s"}]}, {"compound": "CN1CC[C@]23c4c5ccc(O)c4O[C@H]2[C@@H](O)C=C[C@H]3[C@H]1C5", "note": "[Morphine, morphine, reference compound]", "values": [{"measurement": "Mean palpebral opening (% Control)", "setting": "[9]; Table VIII, 10 mg/ml, ten animals", "result": 74.8, "unit": "% Control"}]}, {"compound": "CC(C)NCC(O)COc1cccc2ccccc12", "note": "(stereo not drawn) [Propranolol, propranolol]", "values": [{"measurement": "Papp A→B at 60 min, 10 uM", "setting": "[14]", "result": 53.8, "unit": "×10⁻⁶ cm/s"}]}, {"compound": "CC[C@]1(O)C[C@@H]2CN(CCc3c([nH]c4ccccc34)[C@@](C(=O)OC)(c3cc4c(cc3OC)N(C)[C@H]3[C@@](O)(C(=O)OC)[C@H](OC(C)=O)[C@]5(CC)C=CCN6CC[C@]43[C@@H]65)C2)C1", "note": "[Vinblastine, vinblastine]", "values": [{"measurement": "Papp A→B at 60 min, 10 uM", "setting": "[14]", "result": "< 0.2", "unit": "×10⁻⁶ cm/s"}]}]}
